Laboratory results published in patent US12528790B2, “Amide derivative having antiviral activity” (Shionogi & Co., Ltd., priority 2020, dated 2026).
Read-outs that look alike come from different tables or passages of the source.

System: RSV A2 strain
Assay: In vitro CPE (CytoPathic Effect) inhibition effect evaluation test, RSV type A
Format: cell-based
Settings: human respiratory syncytial virus
Method in brief: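 HEp-2 cells (2.4×10^5 cells/mL, 2% FBS E-MEM) were infected with RSV alongside 3-fold compound dilutions and incubated at 37 °C, 4 days for A2 and 5 days for B Wash/18537. Viable cells quantified by CellTiter-Glo 2.0 luminescence; EC50 by nonlinear regression as 50% CPE inhibition.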

[1] = inhibitory effect against RSV type A (RSV A2 strain), HEp-2 cells, CPE inhibition, read-out: EC50

| Compound | EC50 [1] | EC50 (HEp-2) |
| --- | --- | --- |
| O=C(NC1(C(=O)O)C2CC3CC(C2)CC1C3)c1ccc(-c2cn(CC3CC3)c3cc(OC4CCN(c5ncccn5)CC4)ccc23)nc1C(F)(F)F (stereo not drawn) [Compound I-153] | < 10 nM | – |
| O=C(NC1(C(=O)O)C2CC3CC(C2)CC1C3)c1ccc(-c2cn(C3CCC3)c3cc(OC4CCN(c5ncccn5)CC4)ccc23)nc1C(F)(F)F (stereo not drawn) [Compound I-154] | < 10 nM | – |
| NC(=O)c1cc(C(=O)NC2(C(=O)O)C3CC4CC(C3)CC2C4)c(C(F)(F)F)nc1N1CCc2cc(OCCC3CCOCC3)ccc21 (stereo not drawn) [Compound I-156] | 100 to 5000 nM | – |
| O=C(NC1(C(=O)O)C2CC3CC(C2)CC1C3)c1cnc(N2CCc3cc(OCCC4CCOCC4)ccc32)nc1C(F)F (stereo not drawn) [Compound I-157] | < 10 nM | – |
| CC(F)(F)c1nc(N2CCc3cc(OCCC4CCOCC4)ccc32)ncc1C(=O)NC1(C(=O)O)C2CC3CC(C2)CC1C3 (stereo not drawn) [Compound I-161] | < 10 nM | – |
| O=C(N[C@@]1(C(=O)O)[C@@H]2C[C@@H]3C[C@H]1C[C@@](F)(C3)C2)c1cnc(N2CCc3cc(OCCC4CCOCC4)ccc32)nc1C(F)(F)F [Compound I-163] | < 10 nM | – |
| O=C(N[C@@]1(C(=O)O)[C@@H]2C[C@@H]3C[C@H]1C[C@@](F)(C3)C2)c1cnc(N2CC3(CCOCC3)c3cc(OC4CCN(c5ncccn5)CC4)ccc32)nc1C(F)(F)F [Compound I-164] | < 10 nM | – |
| NC(=O)[C@@]1(NC(=O)c2cnc(N3CC4(CCOCC4)c4cc(OC5CCN(c6ncccn6)CC5)ccc43)nc2C(F)(F)F)[C@@H]2CC3C[C@H]1C[C@@](F)(C3)C2 [Compound I-166] | < 10 nM | – |
| NCCc1nc(N2CCc3cc(OCCC4CCOCC4)ccc32)nc(C(F)(F)F)c1C(=O)NC1(C(=O)O)C2CC3CC(C2)CC1C3 (stereo not drawn) [Compound I-167] | 100 to 5000 nM | – |
| CN(C)CCc1nc(N2CC3(CCOCC3)c3cc(OC4CCN(c5ncccn5)CC4)ccc32)nc(C(F)(F)F)c1C(=O)NC1(C(=O)O)C2CC3CC(C2)CC1C3 (stereo not drawn) [Compound I-168] | < 10 nM | – |
| NC(=O)C1(NC(=O)c2ccc(N3CC4(CCOCC4)c4cc(OC5CCN(c6ncccn6)CC5)ccc43)nc2C(F)(F)F)C2CC3CC(C2)CC1C3 (stereo not drawn) [Compound I-169] | < 10 nM | – |
| NC(=O)C1(NC(=O)c2cnc(N3CC4(CCOCC4)c4cc(OCCN5CCOCC5)ccc43)nc2C(F)(F)F)C2CC3CC(C2)CC1C3 (stereo not drawn) [Compound I-170] | < 10 nM | – |
| NC(=O)C1(NC(=O)c2cnc(N3CC4(CCNCC4)c4cc(OCCC5CCOCC5)ccc43)nc2C(F)(F)F)C2CC3CC(C2)CC1C3 (stereo not drawn) [Compound I-171] | – | 10 to 100 nM |
| Cc1ccc2c(c1)C1(CCNCC1)CN2c1ncc(C(=O)NC2(C(N)=O)C3CC4CC(C3)CC2C4)c(C(F)(F)F)n1 (stereo not drawn) [Compound I-172] | 100 to 5000 nM | – |
| CNC(=O)C1(NC(=O)c2cnc(N3CC4(CCOCC4)c4cc(OC5CCN(c6ncccn6)CC5)ccc43)nc2C(F)(F)F)C2CC3CC(C2)CC1C3 (stereo not drawn) [Compound I-173] | 10 to 100 nM | – |
| CN(C)C(=O)C1(NC(=O)c2cnc(N3CC4(CCOCC4)c4cc(OC5CCN(c6ncccn6)CC5)ccc43)nc2C(F)(F)F)C2CC3CC(C2)CC1C3 (stereo not drawn) [Compound I-174] | < 10 nM | – |
| CCC(F)(F)c1nc(N2CCc3cc(OCCC4CCOCC4)ccc32)ncc1C(=O)NC1(C(=O)O)C2CC3CC(C2)CC1C3 (stereo not drawn) [Compound I-178] | 10 to 100 nM | – |
| CC(C)(F)c1nc(N2CCc3cc(OCCC4CCOCC4)ccc32)ncc1C(=O)NC1(C(=O)O)C2CC3CC(C2)CC1C3 (stereo not drawn) [Compound I-179] | < 10 nM | – |
| O=C(NC1(C(=O)O)C2CC3CC(C2)CC1C3)c1cnc(N2CCc3cc(OCCC4CCOCC4)ccc32)nc1C(F)(F)C(F)(F)F (stereo not drawn) [Compound I-180] | < 10 nM | – |
| Cc1ccc2c(c1)C1(CCN(C3COC3)CC1)CN2c1ncc(C(=O)NC2(C(N)=O)C3CC4CC(C3)CC2C4)c(C(F)(F)F)n1 (stereo not drawn) [Compound I-181] | – | 10 to 100 nM |

| Compound | EC50 [1] | EC50 (HEp-2) |
| --- | --- | --- |
| N#C[C@H]1CC[C@H](n2cc(-c3ccc(C(=O)NC4(C(=O)O)C5CC6CC(C5)CC4C6)c(C(F)(F)F)n3)c3ccc(OC4CCN(c5ncccn5)CC4)cc32)CC1 (stereo partly drawn) [Compound I-185] | < 10 nM | – |
| N#C[C@H]1CC[C@@H](n2cc(-c3ccc(C(=O)NC4(C(=O)O)C5CC6CC(C5)CC4C6)c(C(F)(F)F)n3)c3ccc(OC4CCN(c5ncccn5)CC4)cc32)CC1 (stereo partly drawn) [Compound I-186] | < 10 nM | – |
| COc1ccc2c(c1)C1(CCOCC1)CN2c1nc(CCCO)c(C(=O)NC2(C(=O)O)C3CC4CC(C3)CC2C4)c(C(F)(F)F)n1 (stereo not drawn) [Compound I-187] | 10 to 100 nM | – |
| O=C(NC1(C(=O)O)C2CC3CC(C2)CC1C3)c1ccc(-c2cn([C@H]3CC[C@@H](OCc4ccccc4)CC3)c3cc(OC4CCN(c5ncccn5)CC4)ccc23)nc1C(F)(F)F (stereo partly drawn) [Compound I-188] | < 10 nM | – |
| O=C(NC1(C(=O)O)C2CC3CC(C2)CC1C3)c1cnc(N2CC3(CCOCC3)c3cc(O[C@H]4CC[C@@H](n5cccn5)CC4)ccc32)nc1C(F)(F)F (stereo partly drawn) [Compound I-192] | < 10 nM | – |
| O=C(NC1(C(=O)O)C2CC3CC(C2)CC1C3)c1ccc(-c2cn([C@H]3CC[C@@H](O)CC3)c3cc(OC4CCN(c5ncccn5)CC4)ccc23)nc1C(F)(F)F (stereo partly drawn) [Compound I-194] | < 10 nM | – |
| O=C(NC1(C(=O)O)C2CC3CC(C2)CC1C3)c1ccc(-c2cn([C@H]3CC[C@H](O)CC3)c3cc(OC4CCN(c5ncccn5)CC4)ccc23)nc1C(F)(F)F (stereo partly drawn) [Compound I-195] | < 10 nM | – |
| O=C(NC1(C(=O)O)C2CC3CC(C2)CC1C3)c1ccc(-c2cn(-c3cncnc3)c3cc(OC4CCN(c5ncccn5)CC4)ccc23)nc1C(F)(F)F (stereo not drawn) [Compound I-196] | < 10 nM | – |
| O=C(NC1(C(=O)O)C2CC3CC(C2)CC1C3)c1ccc(-c2cn(-c3ccncn3)c3cc(OC4CCN(c5ncccn5)CC4)ccc23)nc1C(F)(F)F (stereo not drawn) [Compound I-197] | < 10 nM | – |
| O=C(NC1(C(=O)O)C2CC3CC(C2)CC1C3)c1ccc(-c2cn(-c3cnccn3)c3cc(OC4CCN(c5ncccn5)CC4)ccc23)nc1C(F)(F)F (stereo not drawn) [Compound I-198] | < 10 nM | – |
| O=C(NC1(C(=O)O)C2CC3CC(C2)CC1C3)c1ccc(-c2cn(CCO)c3cc(OC4CCN(c5ncccn5)CC4)ccc23)nc1C(F)(F)F (stereo not drawn) [Compound I-200] | < 10 nM | – |
| O=C(NC1(C(=O)O)C2CC3CC(C2)CC1C3)c1cnc(N2CC3(CCOCC3)c3cc(O)ccc32)nc1C(F)(F)F (stereo not drawn) [Compound I-201] | 10 to 100 nM | – |
| O=C(NC1(C(=O)O)C2CC3CC(C2)CC1C3)c1cnc(N2CC3(CCOCC3)c3cc(OC4CCN(c5ncccn5)CC4)ccc32)nc1C(F)(F)CO (stereo not drawn) [Compound I-205] | < 10 nM | – |
| Cn1ccnc1N1CCC(Oc2ccc3c(c2)CCN3c2ncc(C(=O)NC3(C(=O)O)CCCCC3)c(C(F)(F)F)n2)CC1 [Compound I-207] | 10 to 100 nM | – |
| O=C(O)/C=C/C1(NC(=O)c2cnc(N3CC4(CCOCC4)c4cc(OC5CCN(c6ncccn6)CC5)ccc43)nc2C(F)(F)F)C2CC3CC(C2)CC1C3 (stereo not drawn) [Compound I-208] | < 10 nM | – |
| CC(C)N1CCC(Oc2ccc3c(c2)C2(CCOCC2)CN3c2ncc(C(=O)NC3(C(=O)O)C4CC5CC(C4)CC3C5)c(C(F)(F)F)n2)CC1 (stereo not drawn) [Compound I-209] | < 10 nM | – |
| O=C(NC1(C(=O)O)C2CC3CC(C2)CC1C3)c1cnc(N2CC3(CCOCC3)c3cc(O[C@@H]4C[C@H]5CC[C@@H](C4)N5)ccc32)nc1C(F)(F)F (stereo partly drawn) [Compound I-212] | – | 100 to 5000 nM |
| O=C(NC1(C(=O)O)C2CC3CC(C2)CC1C3)c1cnc(N2CCc3cc(CN4CCN(c5ncccn5)CC4)ccc32)nc1C(F)(F)F (stereo not drawn) [Compound I-213] | < 10 nM | – |
| N#C[C@]12C[C@@H]3C[C@H](C1)[C@@](NC(=O)c1cnc(N4CC5(CCOCC5)c5cc(OC6CCN(c7ncccn7)CC6)ccc54)nc1C(F)(F)F)(C(=O)O)[C@@H](C3)C2 [Compound I-219] | < 10 nM | – |
